In US8853235B2, “Polymorphs and salts of a kinase inhibitor” (Senhwa Biosciences, Inc., priority 2009, dated 2014):
Where “and” joins values, the source holds several entries; their conditions need not be identical. Identical values can stand only once.

Assays:
Assay type in all cases: physicochemical
[1] = Water solubility of compound (I) acid and its salts; settings: qualitative, acid form vs salts
[2] = Solubility in organic solvents, sodium salt vs free acid (FIG. 81); settings: compared with the acid
[3] = Intrinsic solubility / dissolution rate of salts and polymorphs (FIGS. 82-83); settings: qualitative; for ease of dissolution: FIGS. 82-83
[4] = Storage, drying and light stability of sodium salt forms, by XRPD; settings: for physical change in light study by XRPD: 5 day light studies; for time in which material reverts to Form II: 5 day stability study, 40° C./75% RH; for physical change on storage by XRPD: about 80° C. over about 5 days
[5] = Gravimetric Vapor Sorption (GVS) of sodium salt polymorphs; settings: for XRPD analysis of the post-GVS experiment sample: after GVS; for hydroscopicity by GVS: qualitative; for GVS desorption: sample retains water until: mass drops significantly there
[6] = Short term accelerated stability study of Arginine and TRIS salts; settings: 40° C./75% RH; for change by XRPD and DSC: 4 week period; for HPLC impurity after storage: after 4 weeks
Procedure: Arginine and TRIS salts of compound I prepared as described above were stored at 40° C./75% RH. Each sample was assessed at 0,1 week, 2 weeks and 4 weeks by XRPD, DSC and HPLC assess the stability of each salt.

[7] = Slurry of Arginine and TRIS salts to determine stability (competitive slurry); settings: for relative stability of the two forms: competitive slurry, MeOH/H2O (90:10) and EtOH/H2O (90:10); for form after slurry by XRPD: MeOH/H2O (90:10), temperature cycling 40° C. and RT, 4 hour periods, 5 days
Description: Both Arginine and TRIS salt forms of compound I prepared as described above were slurried in 2˜4 different solvents including aqueous mixes to further determine the stability of the new salt forms. The solids were then dried and analyzed by XRPD and Raman to check for changes in physical and/or chemical form.

[8] = Micronization of Arginine and TRIS salts, physical form check; settings: micronized vs pre-micronized
Description: Both Arginine and TRIS salt forms of compound I prepared as described above were micronized at Pharmaterials in preparation for PK studies. Particle size reduction was done using a Sturtevant Qualification Micronizer® (Sturtevant Inc. Hanover Mass., USA) with dry nitrogen gas as feed and grind gas. To avoid clogging of the venturi and feed nozzle, the polymorph was initially ground using a pestle and motor to break down large particles. Grinding was done at room temperature using the following settings: • Feed air pressure: 80 psi • Grind air pressure: 100 psi
The micronized polymorph was collected from the exhaust bag and put in a glass vial pending further analysis. The material was then analyzed for particle size distribution based on a method established and applied to each batch. […] The samples were also analyzed by HPLC to determine chemical purity.

[9] = Determination of particle size distribution (Malvern Mastersizer); settings: for d50, 3 times / d90, 3 times: single measurements
Procedure: Particle size analysis of the pre-milled and post-milled TRIS and arginine salts was carried out using the Malvern Mastersizer, Model Micro Plus. Backgrounds were first measured using the appropriate vehicle solution as diluent (Dimethyl Siloxane). The samples were added drop-wise until a suitable obscuration value was achieved, and particle size distribution measured. A minimum of three analyses were made for each sample.

O=C(O)c1ccc2c(c1)nc(Nc1cccc(Cl)c1)c1ccncc12 [Compound I, 5-(3-chlorophenylamino)benzo[c][2,6]naphthyridine-8-carboxylic acid]
water solubility [1]: very low

O=C(O)c1ccc2c(c1)nc(Nc1cccc(Cl)c1)c1ccncc12 [Form I, 5-(3-chlorophenylamino)benzo[c][2,6]naphthyridine-8-carboxylic acid]
solubility in organic solvents [2]: more soluble in organic solvents than the acid | solubility relative to other polymorphs [3]: significantly more soluble than other polymorphs | physical form on storage ([4]; dry conditions less than 30° C.): stay amorphous

O=C(O)c1ccc2c(c1)nc(Nc1cccc(Cl)c1)c1ccncc12 [Form II, 5-(3-chlorophenylamino)benzo[c][2,6]naphthyridine-8-carboxylic acid]
solubility relative to other polymorphs [3]: significantly more soluble than other polymorphs | GVS uptake of water ([5]; 20-70% RH): about 12% | GVS weight gain ([5]; RH range of about 10% to about 70%): about 8% | form conversion in the GVS cycle ([5]; about 10% to about 90% RH, repeated): No further form conversion was observed | XRPD analysis of the post-GVS experiment sample [5]: amorphous content | hydroscopicity by GVS [5]: moderate | form after drying ([4]; 80° C. for about 24 hours and prolonged drying at 60° C.): converted to amorphous material

O=C(O)c1ccc2c(c1)nc(Nc1cccc(Cl)c1)c1ccncc12 [Form III, 5-(3-chlorophenylamino)benzo[c][2,6]naphthyridine-8-carboxylic acid]
XRPD analysis of the post-GVS experiment sample [5]: amorphous content | GVS desorption: sample retains water until [5]: 5% | hydroscopicity by GVS [5]: hydroscopic | GVS water absorbed on sorption ([5]; sorption): 11% | physical change in light study by XRPD [4]: no physical change | time in which material reverts to Form II [4]: ≤ 24 h | physical change on storage by XRPD [4]: less crystalline appearance

O=C(O)c1ccc2c(c1)nc(Nc1cccc(Cl)c1)c1ccncc12 [Form IV, 5-(3-chlorophenylamino)benzo[c][2,6]naphthyridine-8-carboxylic acid]
GVS uptake of water on sorption ([5]; about 20-60% RH): about 1% | GVS further rapid uptake ([5]; about 60-70% RH): approximately 8% | XRPD analysis of the post-GVS experiment sample [5]: amorphous content | GVS desorption: sample retains water until [5]: about 5% | physical change in light study by XRPD [4]: no physical change | time in which material reverts to Form II [4]: ≤ 24 h | physical change on storage by XRPD [4]: no physical change | form after drying ([4]; drying at 50° C.): converts to another crystalline polymorph

O=C(O)c1ccc2c(c1)nc(Nc1cccc(Cl)c1)c1ccncc12 [Form VII, 5-(3-chlorophenylamino)benzo[c][2,6]naphthyridine-8-carboxylic acid]
stability by XRPD ([4]; ambient conditions and 40° C./75% relative humidity, seven days): stable

O=C(O)c1ccc2c(c1)nc(Nc1cccc(Cl)c1)c1ccncc12 [Form XXI, 5-(3-chlorophenylamino)benzo[c][2,6]naphthyridine-8-carboxylic acid]
ease of dissolution [3]: particularly easily dissolved | change by XRPD and DSC [6]: no significant change | HPLC impurity after storage [6]: no additional impurity | relative stability of the two forms [7]: more stable | DSC change after micronization [8]: no significant change | XRPD change after micronization [8]: no significant change in crystalline structure | d50, Average ([9]; micronized): 4.1 μm | d90, Average ([9]; micronized): 8.0 μm | d50, 3 times ([9]; micronized): 3.98 μm and 4.04 μm and 4.14 μm | d90, 3 times ([9]; micronized): 7.90 μm and 7.94 μm and 8.13 μm | d50, Average ([9]; pre-micronized): 21.6 μm | d90, Average ([9]; pre-micronized): 71.0 μm | d50, 3 times ([9]; pre-micronized): 19.97 μm and 21.13 μm and 23.60 μm | d90, 3 times ([9]; pre-micronized): 62.36 μm and 70.79 μm and 79.85 μm

O=C(O)c1ccc2c(c1)nc(Nc1cccc(Cl)c1)c1ccncc12 [Form XXI-B, 5-(3-chlorophenylamino)benzo[c][2,6]naphthyridine-8-carboxylic acid]
form after slurry by XRPD [7]: complete conversion to Form XXI

O=C(O)c1ccc2c(c1)nc(Nc1cccc(Cl)c1)c1ccncc12 [Form XXII, 5-(3-chlorophenylamino)benzo[c][2,6]naphthyridine-8-carboxylic acid]
ease of dissolution [3]: particularly easily dissolved | change by XRPD and DSC [6]: no significant change | HPLC impurity after storage [6]: no additional impurity | relative stability of the two forms [7]: more stable | DSC change after micronization [8]: no significant change | XRPD change after micronization [8]: no significant change in crystalline structure | d50, Average ([9]; micronized): 6.0 μm | d90, Average ([9]; micronized): 10.5 μm | d50, 3 times ([9]; micronized): 6.12 μm and 6.03 μm and 5.99 μm | d90, 3 times ([9]; micronized): 10.72 μm and 10.51 μm and 10.41 μm | d50, Average ([9]; pre-micronized): 10.0 μm | d90, Average ([9]; pre-micronized): 23.4 μm | d50, 3 times ([9]; pre-micronized): 9.97 μm and 9.98 μm and 10.06 μm | d90, 3 times ([9]; pre-micronized): 23.26 μm and 23.15 μm and 23.68 μm

O=C(O)c1ccc2c(c1)nc(Nc1cccc(Cl)c1)c1ccncc12 [Form XXII-B, 5-(3-chlorophenylamino)benzo[c][2,6]naphthyridine-8-carboxylic acid]
form after slurry by XRPD [7]: complete conversion to Form XXII
